Assay results taken from PubChem BioAssay AID330 (DTP/NCI, 2004).
Values joined by “and” are separate entries in the source; they are usually repeats but may differ in a detail not shown here. Equal values may be shown once. Inconclusive results and toxic doses are left out. How the source made its calls: active means survival T/C of 150% or more; inactive means T/C below 125% in these data.

Tested on: P388 leukemia ip, CD2F1 mice, survival T/C
Assay: NCI In Vivo Anticancer Drug Screen. Data for tumor model P388 Leukemia (intraperitoneal) in CD2F1 (CDF1) mice
Conditions: endpoint: median survival time, higher = longer survival
Summary of the method: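 Mice carrying the transplanted tumor received test compound or vehicle. Survival was recorded in each group, and the value is the treated-group measurement divided by that of the vehicle-treated control group.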

[1] = dose: 6.25 mg/kg/injection, schedule: Q01DX005 (ip), vehicle: saline with Tween-80
[2] = dose: 50.0 mg/kg/injection, schedule: Q01DX005 (ip), vehicle: saline with Tween-80
[3] = dose: 60.0 mg/kg/injection, schedule: Q01DX005 (ip), vehicle: saline with Tween-80
[4] = dose: 120.0 mg/kg/injection, schedule: Q01DX005 (ip), vehicle: saline with Tween-80
[5] = dose: 25.0 mg/kg/injection, schedule: Q01DX009 (ip), vehicle: saline
[6] = dose: 50.0 mg/kg/injection, schedule: Q01DX009 (ip), vehicle: saline with Tween-80
[7] = dose: 50.0 mg/kg/injection, schedule: Q01DX009 (ip), vehicle: saline
[8] = dose: 100.0 mg/kg/injection, schedule: Q01DX009 (ip), vehicle: saline
[9] = dose: 3.12 mg/kg/injection, schedule: Q01DX005 (ip), vehicle: saline
[10] = dose: 6.25 mg/kg/injection, schedule: Q01DX005 (ip), vehicle: saline
[11] = dose: 12.5 mg/kg/injection, schedule: Q01DX005 (ip), vehicle: saline
[12] = dose: 25.0 mg/kg/injection, schedule: Q01DX005 (ip), vehicle: saline

Measured: T/C

O=C1C=CC2OC(c3ccccc3)C(O)C2O1 (stereo unspecified)
inactive: dose: 3.12 mg/kg/injection, schedule: Q01DX005 (ip), vehicle: DMSO 98 % of control | dose: 6.25 mg/kg/injection, schedule: Q01DX005 (ip), vehicle: DMSO 107 % of control | [1] 110 % of control and 118 % of control (2×) | dose: 6.25 mg/kg/injection, schedule: Q01DX009 (ip), vehicle: distilled water + Tween-80 + alcohol 98 % of control | dose: 12.5 mg/kg/injection, schedule: Q01DX005 (ip), vehicle: DMSO 116 % of control | dose: 12.5 mg/kg/injection, schedule: Q01DX005 (ip), vehicle: saline with Tween-80 103 % of control (2×) and 117 % of control | dose: 12.5 mg/kg/injection, schedule: Q01DX009 (ip), vehicle: distilled water + Tween-80 + alcohol 109 % of control | dose: 25.0 mg/kg/injection, schedule: Q01DX005 (ip), vehicle: DMSO 122 % of control | dose: 25.0 mg/kg/injection, schedule: Q01DX005 (ip), vehicle: saline with Tween-80 109 % of control (2×) and 118 % of control | dose: 25.0 mg/kg/injection, schedule: Q01DX009 (ip), vehicle: distilled water + Tween-80 + alcohol 118 % of control | dose: 30.0 mg/kg/injection, schedule: Q01DX009 (ip), vehicle: DMSO 113 % of control | [2] 107 % of control

CSC(=O)N(C)C(=O)Nc1cccc([N+](=O)[O-])c1
inactive: dose: 100.0 mg/kg/injection, schedule: Q04DX003 (ip), vehicle: Klucel (hydroxypropylcellulose) (HPC) 100 % of control | dose: 200.0 mg/kg/injection, schedule: Q04DX003 (ip), vehicle: Klucel (hydroxypropylcellulose) (HPC) 99 % of control | dose: 400.0 mg/kg/injection, schedule: Q04DX003 (ip), vehicle: Klucel (hydroxypropylcellulose) (HPC) 90 % of control

CCOC(=O)C1C(=O)N(C)C(=O)N1c1ccc(C)cc1 (stereo unspecified)
inactive: [3] 98 % of control | [4] 87 % of control

CCN(CC)CCOc1ccc2c(c1)C(=O)c1cc(OCCN(CC)CC)ccc1-2
inactive: dose: 3.13 mg/kg/injection, schedule: Q01DX009 (ip), vehicle: saline with Tween-80 109 % of control | dose: 6.25 mg/kg/injection, schedule: Q01DX009 (ip), vehicle: saline with Tween-80 109 % of control | dose: 12.5 mg/kg/injection, schedule: Q01DX009 (ip), vehicle: saline with Tween-80 109 % of control | dose: 25.0 mg/kg/injection, schedule: Q01DX009 (ip), vehicle: saline with Tween-80 100 % of control and 113 % of control | [5] 87 % of control | [6] 90 % of control | [7] 100 % of control | [8] 100 % of control

C=CCC(OC(=O)c1ccc(Br)cc1)C1(C)OC1C(C)C1CC(O)(C(OC)OC)NC(=O)O1 (stereo unspecified)
inactive: dose: 0.25 mg/kg/injection, schedule: Q01DX009 (ip), vehicle: saline + alcohol 108 % of control | dose: 0.5 mg/kg/injection, schedule: Q01DX009 (ip), vehicle: saline + alcohol 107 % of control | dose: 1.0 mg/kg/injection, schedule: Q01DX009 (ip), vehicle: saline + alcohol 115 % of control

C#CCOCCCC(=C)C
inactive: [9] 103 % of control | [10] 99 % of control | [11] 100 % of control | [12] 100 % of control

CCOc1c(N=Nc2ccc([N+](=O)[O-])cc2)c(C)nn1C(N)=S
inactive: dose: 60.0 mg/kg/injection, schedule: Q01DX005 (ip), vehicle: Klucel (hydroxypropylcellulose) (HPC) 93 % of control | dose: 120.0 mg/kg/injection, schedule: Q01DX005 (ip), vehicle: Klucel (hydroxypropylcellulose) (HPC) 95 % of control | dose: 240.0 mg/kg/injection, schedule: Q01DX005 (ip), vehicle: Klucel (hydroxypropylcellulose) (HPC) 98 % of control

C[P+]1(CCc2ccc(Cl)cc2)CC=CC1
inactive: dose: 25.0 mg/kg/injection, schedule: Q04DX002 (ip), vehicle: saline 101 % of control | dose: 50.0 mg/kg/injection, schedule: Q04DX002 (ip), vehicle: saline 101 % of control

COc1cc(OC)c(C(=O)O)cc1C(C)=O
inactive: [6] 105 % of control | dose: 100.0 mg/kg/injection, schedule: Q01DX009 (ip), vehicle: saline with Tween-80 115 % of control | dose: 200.0 mg/kg/injection, schedule: Q01DX009 (ip), vehicle: saline with Tween-80 96 % of control

N#CC1OC1c1ccc[n+]([O-])c1 (stereo unspecified)
inactive: dose: 1.56 mg/kg/injection, schedule: Q01DX005 (ip), vehicle: saline 94 % of control | [9] 105 % of control | [10] 100 % of control | [11] 101 % of control

NC(=S)N/N=C\c1[nH]c(=O)nc2ccccc12
inactive: dose: 100.0 mg/kg/injection, schedule: Q01DX009 (ip), vehicle: Klucel (hydroxypropylcellulose) (HPC) 100 % of control | dose: 200.0 mg/kg/injection, schedule: Q01DX009 (ip), vehicle: Klucel (hydroxypropylcellulose) (HPC) 100 % of control | dose: 400.0 mg/kg/injection, schedule: Q01DX009 (ip), vehicle: Klucel (hydroxypropylcellulose) (HPC) 100 % of control

C1=C[N-]c2c3c(ccc2=C1)=CC=C[N-]3.C1=C[N-]c2c3c(ccc2=C1)=CC=C[N-]3.[Cl][Ru][Cl]
inactive: dose: 1.56 mg/kg/injection, schedule: Q01DX005 (ip), vehicle: saline with Tween-80 88 % of control | dose: 3.13 mg/kg/injection, schedule: Q01DX005 (ip), vehicle: saline with Tween-80 111 % of control | [1] 104 % of control

O=c1[nH]cnc2nc(N3CCN(c4ccccc4)CC3)sc12
inactive: [3] 87 % of control | [4] 87 % of control | dose: 240.0 mg/kg/injection, schedule: Q01DX005 (ip), vehicle: saline with Tween-80 87 % of control

Cc1ccc(/C=N/N=c2/sc3ccccc3n2CC(=O)O)cc1
inactive: dose: 100.0 mg/kg/injection, schedule: Q01DX001 (ip), vehicle: saline with Tween-80 98 % of control | dose: 200.0 mg/kg/injection, schedule: Q01DX001 (ip), vehicle: saline with Tween-80 92 % of control | dose: 400.0 mg/kg/injection, schedule: Q01DX001 (ip), vehicle: saline with Tween-80 89 % of control

C1=CC2C3CCC(C3)C2C1 (stereo unspecified)
inactive: dose: 100.0 mg/kg/injection, schedule: Q04DX003 (ip), vehicle: saline with Tween-80 113 % of control | dose: 200.0 mg/kg/injection, schedule: Q04DX003 (ip), vehicle: saline with Tween-80 100 % of control | dose: 400.0 mg/kg/injection, schedule: Q04DX003 (ip), vehicle: saline with Tween-80 104 % of control

C[N+](C)(C)CC(=O)O
inactive: dose: 10.0 mg/kg/injection, schedule: Q01DX005 (ip), vehicle: saline 104 % of control | dose: 20.0 mg/kg/injection, schedule: Q01DX005 (ip), vehicle: saline 99 % of control | dose: 31.25 mg/kg/injection, schedule: Q01DX005 (ip), vehicle: saline 100 % of control | dose: 40.0 mg/kg/injection, schedule: Q01DX005 (ip), vehicle: saline 98 % of control | dose: 62.5 mg/kg/injection, schedule: Q01DX005 (ip), vehicle: saline 105 % of control | dose: 125.0 mg/kg/injection, schedule: Q01DX005 (ip), vehicle: saline 91 % of control | dose: 250.0 mg/kg/injection, schedule: Q01DX005 (ip), vehicle: saline 87 % of control

COP(=O)(CC(=O)CCCCC1OCCO1)OC
inactive: dose: 60.0 mg/kg/injection, schedule: Q01DX005 (ip), vehicle: saline 110 % of control | dose: 120.0 mg/kg/injection, schedule: Q01DX005 (ip), vehicle: saline 105 % of control | dose: 240.0 mg/kg/injection, schedule: Q01DX005 (ip), vehicle: saline 100 % of control

O=[N+]([O-])c1ccc(/C(=C/c2ccccc2)S(=O)(=O)C(Cl)(Cl)Cl)o1
inactive: dose: 12.5 mg/kg/injection, schedule: Q01DX009 (ip), vehicle: saline 102 % of control and 97 % of control | [5] 104 % of control and 92 % of control | [7] 104 % of control and 92 % of control | dose: 50.0 mg/kg/injection, schedule: Q01DX009 (ip), vehicle: suspension in saline 100 % of control | [8] 101 % of control and 112 % of control

S=C(S)NCCCn1ccnc1
inactive: [2] 117 % of control | dose: 100.0 mg/kg/injection, schedule: Q01DX005 (ip), vehicle: saline with Tween-80 109 % of control | dose: 200.0 mg/kg/injection, schedule: Q01DX005 (ip), vehicle: saline with Tween-80 110 % of control

O=S1(=O)OCCCCO1
inactive: [11] 107 % of control | [12] 100 % of control

COc1ccc(C(=O)C(CN(C)C)CN(C)C)c(OC)c1
inactive: dose: 7.5 mg/kg/injection, schedule: Q01DX005 (ip), vehicle: saline 121 % of control | dose: 15.0 mg/kg/injection, schedule: Q01DX005 (ip), vehicle: saline 108 % of control
